# From US11434234B2, “Methods and agents for treating disease” (ANGION BIOMEDICA CORP., priority 2014, dated 2022)
# Molecular target: T1, human CYP11B2 (Homo sapiens, UniProt P19099)
# T1 construct: expressed in transfected cells; host or cells: V79 Chinese hamster cells
# T1 sequence (P19099 25-503): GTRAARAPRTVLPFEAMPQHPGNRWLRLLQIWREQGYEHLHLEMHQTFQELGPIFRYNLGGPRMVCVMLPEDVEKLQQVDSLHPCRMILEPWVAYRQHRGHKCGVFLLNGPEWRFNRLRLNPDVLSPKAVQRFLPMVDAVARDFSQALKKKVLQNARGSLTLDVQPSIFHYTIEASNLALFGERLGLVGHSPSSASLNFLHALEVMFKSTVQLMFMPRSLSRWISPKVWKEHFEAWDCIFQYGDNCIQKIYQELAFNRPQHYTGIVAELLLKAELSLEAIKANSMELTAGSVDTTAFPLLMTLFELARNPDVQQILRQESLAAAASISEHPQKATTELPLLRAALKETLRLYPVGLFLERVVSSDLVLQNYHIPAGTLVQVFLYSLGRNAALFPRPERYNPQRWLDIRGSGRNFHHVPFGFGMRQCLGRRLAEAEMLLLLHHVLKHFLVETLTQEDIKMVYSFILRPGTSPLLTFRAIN
# Assay: Aldosterone inhibitory activity in V79 cells expressing human CYP11B2
# Type: cell-based
# Conditions: V79 Chinese hamster cells stably transfected with human CYP11B2; substrate 11-deoxycorticosterone 100 nM; read-out: IC50, inhibition of the production of aldosterone
# Method: For the determination of aldosterone inhibitory activity, tests were carried out using V79 Chinese hamster cells stably transfected with human CYP11B2 or CYP11B1 and using assay protocols as described in Ehmer P B, Bureik M, Bernhardt R, Muller U, Hartmann R W. Development of a test system for inhibitors of human aldosterone synthase (CYP11B2): screening in fission yeast and evaluation of selectivity in V79 cells. J. Steroid Biochem. Mol. Biol. 2002 June; 81(2):173-9. The concentration of the substrate 11-deoxycorticosterone in the assay was 100 nM.
row,Structure (SMILES),IC50
1,"CCCC(O)(c1cncc(OC)c1)c1nc2ccc(F)cc2s1 (stereo not drawn) [Example 20, 1-(6-fluorobenzo[d]thiazol-2-yl)-1-(5-methoxypyridin-3-yl)butan-1-ol]",< 1 µM
2,"CCCC(O)(c1nc2ccc(Br)cc2s1)c1cnccc1C(C)C (stereo not drawn) [Example 37, 1-(6-bromobenzo[d]thiazol-2-yl)-1-(4-isopropylpyridin-3-yl)butan-1-ol]",< 1 µM
3,"CCCC(O)(c1nc2ccc(Cl)cc2s1)c1cnccc1OCC (stereo not drawn) [Example 39, 1-(6-chlorobenzo[d]thiazol-2-yl)-1-(4-ethoxypyridin-3-yl)butan-1-ol]",< 1 µM
4,"CCCC(O)(c1nc2ccc(C(N)=O)cc2s1)c1cnccc1OCC (stereo not drawn) [Example 73, 2-(1-(4-ethoxypyridin-3-yl)-1-hydroxybutyl)benzo[d]thiazole-6-carboxamide]",< 1 µM
5,"CCCC(O)(c1nc2cccc(Br)c2s1)c1cnccc1C(C)C (stereo not drawn) [Example 38, 1-(7-bromobenzo[d]thiazol-2-yl)-1-(4-isopropylpyridin-3-yl)butan-1-ol]",< 1 µM
6,"CCCC(O)(c1nc2ccc(Br)cc2s1)c1cnccc1OCC (stereo not drawn) [Example 29, 1-(6-bromobenzo[d]thiazol-2-yl)-1-(4-ethoxypyridin-3-yl)butan-1-ol]",< 1 µM
7,"CC(C)c1ccncc1C(O)(c1nc2cccc(Br)c2s1)C(C)C (stereo not drawn) [Example 34, 1-(7-bromobenzo[d]thiazol-2-yl)-1-(4-isopropylpyridin-3-yl)-2-methylpropan-1-ol]",< 1 µM
8,"CCCC(O)(c1nc2ccc(OC)cc2s1)c1cnccc1OCC (stereo not drawn) [Example 48, 1-(4-ethoxypyridin-3-yl)-1-(6-methoxybenzo[d]thiazol-2-yl)butan-1-ol]",< 1 µM

# Molecular target: T2, aldosterone synthase (Homo sapiens, UniProt P19099)
# T2 construct: host or cells: H295R human adrenocortical carcinoma cells
# T2 sequence (P19099 25-503): T1 sequence (P19099 25-503)
# Assay: Ang-II stimulated aldosterone production in H295R cells (ELISA)
# Type: cell-based
# Conditions: Ang-II stimulated
# Method: To test the activity of compounds in a cell-based assay, a well-established assay described in the literature was used [Muller-Vieira U, Angotti M, Hartmann R W. The adrenocortical tumor cell line NCI-H295R as an in vitro screening system for the evaluation of CYP11B2 (aldosterone synthase) and CYP11B1 (steroid-11beta-hydroxylase) inhibitors. […] In brief, human adrenocortical carcinoma cells (H295R; ATCC CRL-2128) were plated in 96-well plates and the effect of compounds on angiotensin-II (Ang-II) stimulated aldosterone production was determined in the supernatant using an ELISA kit (Genway 40-521-475012). […] Compounds were tested in the aldosterone production assay at various concentrations and from dose-response inhibition curves the % inhibition at specific concentrations and the IC50 were calculated.
row,Structure (SMILES),Ang-II stimulated aldosterone production
1,CCOC(=O)c1cncn1[C@H](C)c1ccccc1 [etomidate],significantly inhibited
2,CC(=O)N1CCN(c2ccc(OCC3COC(Cn4ccnc4)(c4ccc(Cl)cc4Cl)O3)cc2)CC1 (stereo not drawn) [ketoconazole],significantly inhibited

# Same assay, conditions: basal
row,Structure (SMILES),basal aldosterone production
1,CCOC(=O)c1cncn1[C@H](C)c1ccccc1 [etomidate],significantly inhibited
2,CC(=O)N1CCN(c2ccc(OCC3COC(Cn4ccnc4)(c4ccc(Cl)cc4Cl)O3)cc2)CC1 (stereo not drawn) [ketoconazole],significantly inhibited
